Common to all, as to experiment: HIV-1 RT Assay
Experiment [1] deals with T1, Gag-Pol polyprotein [600-1027,Y780C]/[600-1155,Y780C] (Human immunodeficiency virus 1, UniProt P03366, Y780C).
T1 construct: 600-1027; 600-1155

Experiment [2] concerns the target T2, Gag-Pol polyprotein [600-1027,Y787L]/[600-1155,Y787L] (Human immunodeficiency virus 1, UniProt P03366, Y787L).
T2 construct: 600-1027; 600-1155

Experiment [3] has as its target T3, Gag-Pol polyprotein [600-1027,R876K]/[600-1155] (Human immunodeficiency virus 1, UniProt P03366, R876K).
T3 construct: 600-1027; 600-1155

pIC50: −log10 of the molar value. A value given as a limit tells only on which side of the number the result lay.

As a reminder, the pIC50 is the IC50 on a negative log10 scale, so that one unit is a factor of ten. Low values mean a large IC50, high ones a small IC50.

Regarding `CCN1c2ncc(/C=C/c3ccncc3)cc2C(=O)N(C)c2cccnc21` [5,11-Dihydro-11-ethyl-5-methyl-8-[trans-2-(4-pyridyl)ethen-1-yl]-6H-dipyrido[3,2-b:2 ,3-e][1,4]diazepin-6-one], the pIC50 in experiment [1] is below 6.00.

In turn, `CCN1c2ncc(CCc3ccc(NS(C)(=O)=O)cc3)cc2C(=O)N(C)c2ccc(Cl)nc21` [N-[4-(2-{5-chloro-2-ethyl-9-methyl-10-oxo-2,4,9,15-tetraazatricyclo[9.4.0.0^{3,8}]pentadeca-1(15),3(8),4,6,11,13-hexaen-13-yl}ethyl)phenyl]methanesulfonamide] showed a pIC50 in experiment [2] below 6.00.

With `CCN1c2ncc(CCc3ccc(C)cc3)cc2C(=O)N(C)c2cccnc21` [2-ethyl-9-methyl-13-[2-(4-methylphenyl)ethyl]-2,4,9,15-tetraazatricyclo[9.4.0.0^{3,8}]pentadeca-1(11),3,5,7,12,14-hexaen-10-one], the pIC50 was below 6.00 in experiment [2] and 7.00 in experiment [3].

As to `CCN1c2ncc(CCc3ccccc3C)cc2C(=O)N(C)c2cccnc21` [2-ethyl-9-methyl-13-[2-(2-methylphenyl)ethyl]-2,4,9,15-tetraazatricyclo[9.4.0.0^{3,8}]pentadeca-1(11),3,5,7,12,14-hexaen-10-one], in experiment [2], the pIC50 was below 6.00.

In experiment [2], `CCN1c2ncc(CCc3cccc(NS(C)(=O)=O)c3)cc2C(=O)N(C)c2ccc(Cl)nc21` [N-[3-(2-{5-chloro-2-ethyl-9-methyl-10-oxo-2,4,9,15-tetraazatricyclo[9.4.0.0^{3,8}]pentadeca-1(15),3(8),4,6,11,13-hexaen-13-yl}ethyl)phenyl]methanesulfonamide] gave a pIC50 below 6.00.

The compound `CCN1c2ncc(CCc3ccccc3N)cc2C(=O)N(C)c2cccnc21` [13-[2-(2-aminophenyl)ethyl]-2-ethyl-9-methyl-2,4,9,15-tetraazatricyclo[9.4.0.0^{3,8}]pentadeca-1(15),3(8),4,6,11,13-hexaen-10-one] had a pIC50 in experiment [2] below 6.00.

In the case of `CCN1c2ncc(Cl)cc2C(=O)N(C)c2cccnc21` [13-chloro-2-ethyl-9-methyl-2,4,9,15-tetraazatricyclo[9.4.0.0^{3,8}]pentadeca-1(11),3,5,7,12,14-hexaen-10-one], in experiment [1] (pH 7.8, 22 °C), the pIC50 was below 6.00.

For the compound `CCN1c2ncc(CCc3ccccc3C)cc2C(=O)N(C)c2ccc(Cl)nc21` [5-chloro-2-ethyl-9-methyl-13-[2-(2-methylphenyl)ethyl]-2,4,9,15-tetraazatricyclo[9.4.0.0^{3,8}]pentadeca-1(15),3(8),4,6,11,13-hexaen-10-one], the pIC50 in experiment [2], in experiment [3] and in experiment [1] was below 6.00 in each case.

With `CCN1c2ncc(/C=C/C(=O)OC)cc2C(=O)N(C)c2cccnc21` [methyl (2E)-3-{2-ethyl-9-methyl-10-oxo-2,4,9,15-tetraazatricyclo[9.4.0.0^{3,8}]pentadeca-1(11),3,5,7,12,14-hexaen-13-yl}prop-2-enoate], the pIC50 in experiment [3] (pH 7.8, 22 °C) was below 6.00.

Regarding `CCN1c2ncc(CCc3ccc4ccccc4c3)cc2C(=O)N(C)c2ccc(F)nc21` [2-ethyl-5-fluoro-9-methyl-13-[2-(naphthalen-2-yl)ethyl]-2,4,9,15-tetraazatricyclo[9.4.0.0^{3,8}]pentadeca-1(15),3(8),4,6,11,13-hexaen-10-one], the pIC50 in experiment [2] was below 6.00.

In the case of `CCN1c2ncc(CCc3cccc(C)c3)cc2C(=O)N(C)c2cccnc21` [2-ethyl-9-methyl-13-[2-(3-methylphenyl)ethyl]-2,4,9,15-tetraazatricyclo[9.4.0.0^{3,8}]pentadeca-1(11),3,5,7,12,14-hexaen-10-one], in experiment [2], the pIC50 was below 6.00.

In the case of `CCN1c2ncc(-c3cccc(OC)c3)cc2C(=O)N(C)c2cccnc21` [2-ethyl-13-(3-methoxyphenyl)-9-methyl-2,4,9,15-tetraazatricyclo[9.4.0.0^{3,8}]pentadeca-1(11),3,5,7,12,14-hexaen-10-one], the pIC50 is below 6.00 in experiment [3] (pH 7.8, 22 °C) and below 6.00 in experiment [1] (pH 7.8, 22 °C).

The compound `CCN1c2ncc(CCc3ccnc(CO)c3)cc2C(=O)N(C)c2ccc(Cl)nc21` [5-chloro-2-ethyl-13-{2-[2-(hydroxymethyl)pyridin-4-yl]ethyl}-9-methyl-2,4,9,15-tetraazatricyclo[9.4.0.0^{3,8}]pentadeca-1(15),3(8),4,6,11,13-hexaen-10-one] showed a pIC50 in experiment [2] below 6.00.

In experiment [2], `CCN1c2ncc(CCc3ccc(C)cc3)cc2C(=O)N(C)c2ccc(Cl)nc21` [5-chloro-2-ethyl-9-methyl-13-[2-(4-methylphenyl)ethyl]-2,4,9,15-tetraazatricyclo[9.4.0.0^{3,8}]pentadeca-1(15),3(8),4,6,11,13-hexaen-10-one] showed a pIC50 below 6.00.

In experiment [2], `CCN1c2ncc(CCc3cccc(C)c3)cc2C(=O)N(C)c2ccc(Cl)nc21` [5-chloro-2-ethyl-9-methyl-13-[2-(3-methylphenyl)ethyl]-2,4,9,15-tetraazatricyclo[9.4.0.0^{3,8}]pentadeca-1(15),3(8),4,6,11,13-hexaen-10-one] had a pIC50 below 6.00.

Compound `CCN1c2ncc(CCc3cccc(N)c3)cc2C(=O)N(C)c2cccnc21` [13-[2-(3-aminophenyl)ethyl]-2-ethyl-9-methyl-2,4,9,15-tetraazatricyclo[9.4.0.0^{3,8}]pentadeca-1(15),3(8),4,6,11,13-hexaen-10-one] showed a pIC50 in experiment [2] below 6.00.

For the compound `CCN1c2ncc(C(=O)O)cc2C(=O)N(C)c2cccnc21` [2-ethyl-9-methyl-10-oxo-2,4,9,15-tetraazatricyclo[9.4.0.0^{3,8}]pentadeca-1(11),3,5,7,12,14-hexaene-13-carboxylic acid], the pIC50 in experiment [3] (pH 7.8, 22 °C) was below 6.00.

In experiment [2], `CCN1c2ncc(CCc3ccnc(C(=O)O)c3)cc2C(=O)N(C)c2ccc(Cl)nc21` [2-Chloro-5,11-dihydro-11-ethyl-5-methyl-8-[2-(2-carboxypyrid-4-yl)ethyl]-6H-dipyrido[3,2-b:2 ,3-e][1,4]diazepin-6-one] had a pIC50 below 6.00.

Compound `CCN1c2ncc(N)cc2C(=O)N(C)c2cccnc21` [13-amino-2-ethyl-9-methyl-2,4,9,15-tetraazatricyclo[9.4.0.0^{3,8}]pentadeca-1(11),3,5,7,12,14-hexaen-10-one] had a pIC50 in experiment [3] (pH 7.8, 22 °C) of 7.00.

Turning to `CCN1c2ncc(CCc3cccc(N=[N+]=[N-])c3)cc2C(=O)N(C)c2ccc(Cl)nc21` [13-[2-(3-azidophenyl)ethyl]-5-chloro-2-ethyl-9-methyl-2,4,9,15-tetraazatricyclo[9.4.0.0^{3,8}]pentadeca-1(15),3(8),4,6,11,13-hexaen-10-one], the pIC50 in experiment [2] is below 6.00.

`CCN1c2ncc(CCc3ccc4ccccc4c3)cc2C(=O)N(C)c2cccnc21` [2-ethyl-9-methyl-13-[2-(naphthalen-2-yl)ethyl]-2,4,9,15-tetraazatricyclo[9.4.0.0^{3,8}]pentadeca-1(15),3(8),4,6,11,13-hexaen-10-one]: the pIC50 in experiment [2] was below 6.00.

In the case of `CCN1c2ncc(CCc3cncnc3)cc2C(=O)N(C)c2cccnc21` [2-ethyl-9-methyl-13-[2-(pyrimidin-5-yl)ethyl]-2,4,9,15-tetraazatricyclo[9.4.0.0^{3,8}]pentadeca-1(11),3,5,7,12,14-hexaen-10-one], the pIC50 in experiment [2] and in experiment [1] was below 6.00 in each case.

With `CCN1c2ncc(CCc3ccccn3)cc2C(=O)N(C)c2cccnc21` [2-ethyl-9-methyl-13-[2-(pyridin-2-yl)ethyl]-2,4,9,15-tetraazatricyclo[9.4.0.0^{3,8}]pentadeca-1(11),3,5,7,12,14-hexaen-10-one], the pIC50 in experiment [2] and in experiment [1] was below 6.00 throughout.

Compound `CCN1c2ncc(CCc3ccc(N)cc3)cc2C(=O)N(C)c2cccnc21` [13-[2-(4-aminophenyl)ethyl]-2-ethyl-9-methyl-2,4,9,15-tetraazatricyclo[9.4.0.0^{3,8}]pentadeca-1(15),3(8),4,6,11,13-hexaen-10-one] had a pIC50 in experiment [2] below 6.00.

As for `CCN1c2ncc(CCc3ccncc3)cc2C(=O)N(C)c2ccc(C#N)nc21` [2,8-Disubstituted Dipyridodiazepinone 38], the pIC50 in experiment [2] is below 6.00.

In experiment [2], `CCN1c2ncc(CCc3ccnc(C)c3)cc2C(=O)N(C)c2cccnc21` [2-ethyl-9-methyl-13-[2-(2-methylpyridin-4-yl)ethyl]-2,4,9,15-tetraazatricyclo[9.4.0.0^{3,8}]pentadeca-1(15),3(8),4,6,11,13-hexaen-10-one] had a pIC50 below 6.00.

`CCN1c2ncc(C)cc2C(=O)N(C)c2cccnc21` [2-ethyl-9,13-dimethyl-2,4,9,15-tetraazatricyclo[9.4.0.0^{3,8}]pentadeca-1(11),3,5,7,12,14-hexaen-10-one] showed a negative-log IC50 (pIC50) in experiment [1] (pH 7.8, 22 °C) below 6.00.

For the compound `CCN1c2ncc(CCc3ccc4ccccc4c3)cc2C(=O)N(C)c2ccc(Cl)nc21` [5-chloro-2-ethyl-9-methyl-13-[2-(naphthalen-2-yl)ethyl]-2,4,9,15-tetraazatricyclo[9.4.0.0^{3,8}]pentadeca-1(15),3(8),4,6,11,13-hexaen-10-one], the pIC50 in experiment [2] is below 6.00.

With `CCN1c2ncc(CCc3cccnc3)cc2C(=O)N(C)c2cccnc21` [2-ethyl-9-methyl-13-[2-(pyridin-3-yl)ethyl]-2,4,9,15-tetraazatricyclo[9.4.0.0^{3,8}]pentadeca-1(11),3,5,7,12,14-hexaen-10-one], the pIC50 is below 6.00 in experiment [2] and 7.52 in experiment [3].

As to `CCN1c2ncc(CCc3ccc(N)cc3)cc2C(=O)N(C)c2ccc(Cl)nc21` [13-[2-(4-aminophenyl)ethyl]-5-chloro-2-ethyl-9-methyl-2,4,9,15-tetraazatricyclo[9.4.0.0^{3,8}]pentadeca-1(15),3(8),4,6,11,13-hexaen-10-one], the pIC50 in experiment [2] is below 6.00.

For `CCN1c2ncc(CCc3nccs3)cc2C(=O)N(C)c2cccnc21` [2-ethyl-9-methyl-13-[2-(1,3-thiazol-2-yl)ethyl]-2,4,9,15-tetraazatricyclo[9.4.0.0^{3,8}]pentadeca-1(11),3,5,7,12,14-hexaen-10-one], in experiment [2], the pIC50 is below 6.00.

For the origin of these results see BindingDB's records for doi:10.1021/jm9707028 (Boehringer Ingelheim Pharmaceuticals, 1998).
